{"source": "patent US20250059206A1", "about": "“FUSED RING COMPOUND ACTING AS SHP2 INHIBITOR” (priority 2021, published 2025)", "data": [{"tested_on": "MIA PaCa-2 cells", "experiment": "In vitro anti-proliferative activity against MIA PaCa-2 cells", "assay_type": "cell-based", "conditions": "Homo sapiens, viability 72 h after dosing by intracellular ATP content, versus DMSO group", "experimental": "Example 50. In Vtro Anti-Proliferative Activity of Compounds of the Present Invention Against MIA PaCa-2 Cells\nMIA PaCa-2 cells were seeded on a 96-well plate at 3000 cells/well. After overnight adherence culture, DMSO or the compounds serially diluted 1:5 from […] were added. The viability was assessed 72 h after dosing by measuring the intracellular ATP content. The inhibition percentages of viable cells by the compounds were calculated by comparing with the DMSO group, and the IC50 values were calculated.", "units": {"IC50": "nM"}, "values": [{"smiles": "Cc1ccc2c(c1)[C@@H](N)C1(CCN(c3cnc4c(N5CCN6C(=O)CCc7cc(F)cc5c76)n[nH]c4n3)CC1)C2", "note": "[Compound 41]", "IC50": 13.5}, {"smiles": "N[C@@H]1c2cc(O)ccc2CC12CCN(c1cnc3c(N4CCN5C(=O)CCc6ccc(F)c4c65)n[nH]c3n1)CC2", "note": "[Compound 35]", "IC50": 17.3}, {"smiles": "Cc1ccc2c(c1)[C@@H](N)C1(CCN(c3cnc4c(N5CCN6C(=O)CCc7c(F)ccc5c76)n[nH]c4n3)CC1)C2", "note": "[Compound 46]", "IC50": 14}, {"smiles": "N[C@@H]1c2cccnc2CC12CCN(c1cnc3c(N4CCN5C(=O)CCc6cccc4c65)n[nH]c3n1)CC2", "note": "[Compound 12]", "IC50": 5.8}, {"smiles": "N[C@@H]1c2cc(O)ccc2CC12CCN(c1cnc3c(N4CCN5C(=O)CCc6cc(F)cc4c65)n[nH]c3n1)CC2", "note": "[Compound 40]", "IC50": 18.1}, {"smiles": "N[C@@H]1c2cc(F)ccc2CC12CCN(c1cnc3c(N4CCN5C(=O)CCc6c(F)ccc4c65)n[nH]c3n1)CC2", "note": "[Compound 47]", "IC50": 9.5}, {"smiles": "N[C@@H]1c2ccccc2CC12CCN(c1cnc3c(N4CCN5CCCc6cccc4c65)n[nH]c3n1)CC2", "note": "[Compound 1]", "IC50": 35.1}, {"smiles": "N[C@@H]1c2ccccc2CC12CCN(c1cnc3c(N4CCn5c(=O)ccc6cccc4c65)n[nH]c3n1)CC2", "note": "[Compound 6]", "IC50": 6.5}, {"smiles": "N[C@@H]1c2ccc(F)nc2CC12CCN(c1cnc3c(N4CCN5C(=O)CCc6cccc4c65)n[nH]c3n1)CC2", "note": "[Compound 26]", "IC50": 8.1}, {"smiles": "N[C@@H]1c2ccccc2CC12CCN(c1cnc3c(N4CCN5C(=O)CCc6cccc4c65)n[nH]c3n1)CC2", "note": "[Compound 3]", "IC50": 5.1}, {"smiles": "N[C@@H]1c2cc(O)ccc2CC12CCN(c1cnc3c(N4CCN5C(=O)CCc6cccc4c65)n[nH]c3n1)CC2", "note": "[Compound 21]", "IC50": 11.3}, {"smiles": "NC1c2cccnc2CC12CCN(c1cnc3c(N4CCN5C(=O)CCc6c(F)ccc4c65)n[nH]c3n1)CC2", "note": "(stereo not drawn) [Compound 17]", "IC50": 10.8}, {"smiles": "N[C@@H]1c2ccc(Cl)nc2CC12CCN(c1cnc3c(N4CCN5C(=O)CCc6cccc4c65)n[nH]c3n1)CC2", "note": "[Compound 27]", "IC50": 15.9}, {"smiles": "N[C@@H]1c2cc(F)ccc2CC12CCN(c1cnc3c(N4CCN5C(=O)CCc6cc(F)cc4c65)n[nH]c3n1)CC2", "note": "[Compound 42]", "IC50": 10.1}, {"smiles": "N[C@@H]1c2cccnc2CC12CCN(c1cnc3c(N4CCn5c(=O)ccc6cccc4c65)n[nH]c3n1)CC2", "note": "[Compound 14]", "IC50": 7.2}, {"smiles": "COc1cccc2c1CC1(CCN(c3cnc4c(N5CCN6C(=O)CCc7cccc5c76)n[nH]c4n3)CC1)[C@@H]2N", "note": "[Compound 24]", "IC50": 9.6}, {"smiles": "Cc1ccc2c(c1)[C@@H](N)C1(CCN(c3cnc4c(N5CCN6C(=O)CCc7ccc(F)c5c76)n[nH]c4n3)CC1)C2", "note": "[Compound 36]", "IC50": 12.5}, {"smiles": "COc1cccc2c1CC1(CCN(c3cnc4c(N5CCN6C(=O)CCc7c(F)ccc5c76)n[nH]c4n3)CC1)[C@@H]2N", "note": "[Compound 48]", "IC50": 19.2}, {"smiles": "N[C@@H]1c2ccccc2CC12CCN(c1cnc3c(N4CCN5C(=O)CCc6c(F)ccc4c65)n[nH]c3n1)CC2", "note": "[Compound 10]", "IC50": 12.1}, {"smiles": "N[C@@H]1c2cc(F)ccc2CC12CCN(c1cnc3c(N4CCN5C(=O)CCc6ccc(F)c4c65)n[nH]c3n1)CC2", "note": "[Compound 37]", "IC50": 13.9}, {"smiles": "N[C@@H]1c2cc(O)ccc2CC12CCN(c1cnc3c(N4CCN5C(=O)CCc6c(F)ccc4c65)n[nH]c3n1)CC2", "note": "[Compound 45]", "IC50": 11.5}, {"smiles": "COc1cccc2c1CC1(CCN(c3cnc4c(N5CCN6C(=O)CCc7ccc(F)c5c76)n[nH]c4n3)CC1)[C@@H]2N", "note": "[Compound 38]", "IC50": 15.6}, {"smiles": "N[C@@H]1c2cccnc2CC12CCN(c1cnc3c(N4CCN5C(=O)CCc6cc(F)cc4c65)n[nH]c3n1)CC2", "note": "[Compound 16]", "IC50": 9.3}, {"smiles": "N[C@@H]1c2ccccc2CC12CCN(c1cnc3c(N4CCN5C(=O)CCc6cc(F)cc4c65)n[nH]c3n1)CC2", "note": "[Compound 9]", "IC50": 8.9}]}]}
